Assay results reported in US20060229335A1, “Diarylamine and arylheteroarylamine pyrazole derivatives as modulators of 5ht2a” (priority 2002, published 2006).

Target: non-endogenous, constitutively activated version of the human 5-HT2A receptor (human CART 5-HT2A) (Homo sapiens, UniProt P28223)
Assay: Intracellular IP3 (inositol phosphate) accumulation assay, inverse agonist potency
Format: cell-based
Details: HEK293 cells transfected with mutated constitutively active 5-HT2A, averages of at least two trials, read-out: 5-HT2A (IC50) IP Accumulation Assay
From the text: It is well established that human 5-HT2A receptors coupled to the guanine nucleotide binding protein Gq. 5-HT2A-mediated activation of Gq results in activation of membrane associated phospholipase C which in turn catalyzes the hydrolysis of phosphatidylinositol species (PI, PIP, and PIP2) to form inositol phosphate species (IP, IP2, and IP3). The accumulation of inositol phosphate species can be measured and is often used to determine the functional potency of 5-HT2A agonists or antagonists. However, to evaluate compounds for potential inverse agonist activity, the 5-HT2A receptor must display constitutive activity. We have mutated the human 5-HT2A receptor so as to generate a non-endogenous, constitutively activated version of the 5-HT2A receptor, as disclosed in SEQ ID NO:30 (polynucleotide) and SEQ ID NO:31 (polypeptide) in U.S. Pat. No. 6,541,209 (the disclosure of which is hereby incorporated by reference in its entirety). Upon transfection of this mutated 5-HT2A into HEK293 cells, it was observed that there was a ligand-independent increase in basal inositol phosphate accumulation compared to untransfected cells. This ligand-independent insoitol phosphate accumulation is a trademark of constitutive activity. The following protocol was used to assess inverse agonist potency of compounds.
On day one, 13×10^6 HEK293 cells per 150 mm plate were plated out. On day two, 2 ml of serum OptimemI is added per plate followed by addition of 60 ul of lipofectamine and 16ug of cDNA. Note that lipofectamine must be added to the OptimemI and mixed well before addition of cDNA. While complexes between lipofectamine and the cDNA are forming, media is carefully aspirated and cells are gently rinsed with 5 ml of OptimemI media followed by careful aspiration. Then 12 ml of OptimemI is added to each plate and 2 ml of transfection solution is added followed by a 5 hour incubation at 37° C. in a 5% CO2 incubator. Plates are then carefully aspirated and 25 ml of Complete Media are added to each plate and cells are then incubated until used. On day 3, cells are trypsinized with 5 ml of 0.05% trypsin for 20-30 seconds followed by addition of 10 ml of warmed media, gently titurated to dissociate cells, and then 13 additional ml of warmed media is gently added. Cells are then counted and then 55,000 cells are added to 96-well sterile poly-D-lysine coated plates. Cells are allowed to attach over a six hour incubation at 37° C. in a 5% CO2 incubator. Media is then carefuilly aspirated and 100 ul of warm inositol-free media plus 0.5 μCi ^3H-inositol is added to each well and the plates are incubated for 18-20 hours at 37° C. in a 5% CO2 incubator.
On day 4, media is carefully aspirated and then 0.1 ml of assay medium is added containing inositol-free/serum free media, 10 μM pargyline, 10 mM lithium chloride, and test compound at indicated concentrations. The plates were then incubated for three hours at 37° C. and then wells are carefully aspirated. Then 200 ul of ice-cold 0.1M formic acid is added to each well. Plates can then be frozen at this point at −80° C. until further processed. Frozen plates are then thawed over the course of one hour, and the contents of the wells (approximately 220 ul) are placed over 400 ul of washed ion-exchange resin (AG 1-X8) contained in a Multi Screen Filtration plate and incubated for 10 minutes followed by filtration under vacuum pressure. Resin is then washed nine times with 200 ul of water and then [^3H]inositol phosphates are eluted into a collecting plate by the addition of 200 ul of 1M ammonium formate and an additional 5 minute incubation. The elutant is then transferred to 20 ml scintillation vials, 8 ml of SuperMix or Hi-Safe scintillation cocktails is added, and vials are counted for 0.5-1 minutes in a Wallac 1414 scintilation counter.
At each concentration, triplicate determinations were made. […]

Structure (SMILES)	IC50 [nM]
Cn1ncc(Cl)c1-c1cccc(Nc2ccc(OC(F)(F)F)cc2)c1 [Compound 8, [3-(4-Chloro-2-methyl-2H-pyrazol-3-yl)-phenyl]-(4-trifluoromethoxy-phenyl)-amine]	44.6
Cn1ncc(Br)c1-c1cccc(Nc2ccc(Cl)cc2)c1 [Compound 36, [3-(4-Bromo-2-methyl-2H-pyrazo1-3-yl)-phenyl]-(4-chloro-phenyl)-amine]	7
Cn1ncc(Br)c1-c1cccc(Nc2ccc(C(F)(F)F)cc2)c1 [Compound 44, [3-(4-Bromo-2-methyl-2H-pyrazol-3-yl)-phenyl]-(4-trifluoromethyl-phenyl)-amine]	2.99
Cn1ncc(Br)c1-c1cccc(Nc2ccc(S(C)(=O)=O)cc2)c1 [Compound 46, [3-(4-Bromo-2-methyl-2H-pyrazol-3-yl)-phenyl]-(4-methanesulfonyl-phenyl)-amine]	113
Cc1cc(Nc2cccc(-c3c(Br)cnn3C)c2)ccc1Cl [Compound 49, [3-(4-Bromo-2-methyl-2H-pyrazol-3-yl)-phenyl]-(3-methyl-4-chloro-phenyl)-amine]	19
Cn1ncc(Br)c1-c1cccc(Nc2nc3ccccc3o2)c1 [Compound 57, Benzoxazol-2-yl-[3-(4-bromo-2-methyl-2H-pyrazol-3-yl)-phenyl]-amine]	10.6
COc1ccc(Nc2ccc(Cl)cc2)cc1-c1c(Br)cnn1C [Compound 70, [3-(4-Bromo-2-methyl-2H-pyrazol-3-yl)-4-methoxy-phenyl)-(4-chloro-phenyl)-amine]	1.77
